According to PMC5577515, “Peptide‐Directed Binding for the Discovery of Modulators of α‐Helix‐Mediated Protein–Protein Interactions: Proof‐of‐Concept Studies with the Apoptosis Regulator Mcl‐1” (Angewandte Chemie (International Ed. in English), 2017):
Like-named read-outs stand apart in the source and are kept apart here. Peptide text beside a SMILES is read from it. * marks the point of attachment. X3 = O=C(Cn1cc(-c2ccc([N+](=O)[O-])cc2)nn1)*; X4 = O=C(Cn1cc(-c2c(O)ccc3ccccc23)nn1)*; X2 = COc1ccc(OC)c(-c2cn(CC(=O)*)nn2)c1; X1 = O=C(Cn1cc(-c2ccc(Cl)cc2Cl)nn1)*

Key:
Mcl-1 = target: T1, Mcl-1 (UniProt P97287+Q07820); experiment: Competitive fluorescence anisotropy (FA) assay, FITC-NoxaB displacement from Mcl-1; type: binding
T1 construct: amino acid residues 152-189 of mouse Mcl-1 fused with amino acid residues 209-327 of; 8 x His (N); TEV site (N); made in house; host or cells: E. coli BL21(DE3)pLysS
Protocol: Fmoc, 9-fluorenylmethylcarbony. IC50 determined by non -linear regression of at least three experiments.
4. Fluorescence Anisotropy Binding Assay
Fluorescence anisotropy was carried out on a BMG Labtech clariostar microplate reader with a fluorescence anisotropy optic measuring at 482/530 nm. Low -binding, Corning 96 -well black plates were used and all reagents used in the assay were biological grade and purchased from Sigma Aldrich and Novabioche m. All solutions were made using MilliQ water .
Anisotropy values were automatically calculated using the following formula […]
Where r = anisotropy, l a = parallel emission light, lb = perpendicular emission light and I = total […]
KD was determined using GraphPad Prism Version 6.0 software, using the One Site – Total binding […]
Where Bmax is the maximum specific binding, KD is the equilibrium binding constant, and NS is the slope of nonspecific binding. […]
IC50 was determined using GraphPad Prism Version 6.0 software, using a four-parameter logistic model, according to precedent from Ottmann and co-workers.[5] Errors are the transformed greater extreme of the standard error. […]
For binding each well contained 10 µL of Mcl -1 protein in 10-fold dilutions (0.37 pM to 3.7 µM) […]
protein were dissolved in PBS: 0.05% Tween -20 buffer at pH 7.4. Reagents were incubated for 30 min at room temperature prior to reading. Bubbles were removed and 8 data points were generated.
Figure S 1: Fluorescence Anisotropy direct titration.
To confirm reproducibility of
(µ) and standard deviations (σ) were inputted into the following equation:
Inhibition screens were carried out using 10 nM Mcl -1, 5 nM fluorescently-tagged peptide and 100 µM of inhibitor. Compounds were dissolved in DMSO. […]
control (DMSO) were used to define the mini mum and maximum values and ensure the assay was […]
(1 picture or pasted object on this page, not shown here) […]
Bubbles were removed and 8 data points were generated. […]

MiaPaCa-2 cells = experiment: MTS cytotoxicity assay, MiaPaCa-2; type: cell-based; settings: 37 °C, triplicate, at least three experiments, errors = transformed greater extreme of standard error, read-out: MiaPaCa-2 cell growth inhibition IC50
Protocol: (§1) CUSTOM_[…] ("<1>=[N+]",("charge", 0, 2)) […]
(§2) CUSTOM_[…] ("<1>=[N]=[N]",("bond",1,(2,3))) […]
(§3) CUSTOM_[…] ("<1>([C]=[C])=[N][N]",("bond",1,(3,5))) […]
(§4) The MiaPaCa-2 cell line, BxPC-3 cell line and AsPC-1 cell line were purchased from the European Collection of Cell Cultures (ECACC, Porton Down, UK). MiaPaCa-2 cells were cultured in DMEM media with 2 mM L-glutamine, 100 U/mL penicillin, 100 µg/mL streptomycin and 10% FCS.
(§5) BxPC-3 cells and AsPC-1 cells were cultured in RPMI-1640 media containing 2 mM L-glutamine, 100 U/mL penicillin, 100 µg/mL streptomycin and 10% FCS. Cells were sub-cultured twice weekly and maintained at 37 °C and 5% CO2.
(§6) The anti-proliferative activity of the compounds studied was assessed by MTS assay (Promega) following the manufacturer’s instructions. Cells were seeded at 5 x 103 / 100 μL in a 96-well plate and left untreated or treated with DMSO (vehicle control), or compounds 1-4 (100 μM – […], in well concentration) in triplicate for 72 h at 37 °C with 5% CO2. Following this, MTS assay reagent was added to each well and the plates incubated for 4 h at 37 °C with 5% CO2. The absorbance was measured at 492 nm using the BMG Labtech POLARstarOPTIMA microplate reader. […]

AsPC-1 cells = experiment: MTS cytotoxicity assay, AsPC-1; type: cell-based; settings: 37 °C, triplicate, at least three experiments, errors = transformed greater extreme of standard error, read-out: AsPC-1 cell growth inhibition IC50
Protocol: as §1, §2, §3, §4, §5, §6

BxPC-3 cells = experiment: MTS cytotoxicity assay, BxPC-3; type: cell-based; settings: 37 °C, triplicate, at least three experiments, errors = transformed greater extreme of standard error, read-out: BxPC-3 cell growth inhibition IC50
Protocol: as §1, §2, §3, §4, §5, §6

[1] = Table 2, inhibition of binding of 5 nM FITC-NoxaB to 10 nM Mcl-1, PBS, 0.05% Tween-20, pH 7.4, non-linear regression of at least three experiments, errors = transformed greater extreme of standard error, SEM, read-out: FA IC50
[2] = Table S2, binding inhibition of FITC-NoxaB to Mcl-1, small molecules not tested against cell lines, at least three experiments, errors = transformed greater extreme of standard error, SEM, read-out: FA IC50
[3] = Table S2, binding inhibition of FITC-NoxaB to Mcl-1, small molecules not tested against cell lines, at least three experiments, errors = transformed greater extreme of standard error, read-out: FA IC50
[4] = Table 1, inhibition of binding of 5 nM FITC-NoxaB to 10 nM Mcl-1, PBS, 0.05% Tween-20, pH 7.4, non-linear regression of at least three experiments, errors = transformed greater extreme of standard error, [b] <100 means <100 μM and >10 μM, accurate value not determined, read-out: FA IC50
[5] = Table S1, binding inhibition of FITC-NoxaB to Mcl-1, * less than 100 µM and greater than 10 µM, accurate IC50 not determined, read-out: FA IC50
[6] = Table 1, inhibition of binding of 5 nM FITC-NoxaB to 10 nM Mcl-1, PBS, 0.05% Tween-20, pH 7.4, non-linear regression of at least three experiments, errors = transformed greater extreme of standard error, [b] <100 means <100 μM and >10 μM, accurate value not determined, SEM, read-out: FA IC50

T1 sequence (P97287 152-189 limits assumed): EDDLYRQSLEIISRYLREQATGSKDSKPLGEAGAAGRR
T1 sequence (Q07820 209-327 limits assumed): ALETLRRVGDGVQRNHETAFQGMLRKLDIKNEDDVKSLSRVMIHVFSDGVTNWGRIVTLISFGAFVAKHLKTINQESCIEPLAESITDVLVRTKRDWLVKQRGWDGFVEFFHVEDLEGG

## CC[C@H](C)[C@H](NC(=O)[C@H](CCCNC(=N)N)NC(=O)[C@H](CCCNC(=N)N)NC(=O)[C@H](CC(C)C)NC(=O)[C@H](CCC(N)=O)NC(=O)[C@H](C)NC(=O)[C@H](C)NC(C)=O)C(=O)NCC(=O)N[C@@H](CC(=O)O)C(=O)N[C@@H](Cc1cn(Cc2ccccc2F)nn1)C(N)=O [Compound 2]
Mcl-1; SEM, read-out: FA IC50
  IC50: 0.4 ± 0.3 µM

## CC[C@H](C)[C@H](NC(=O)[C@H](CCCNC(=N)N)NC(=O)[C@H](CCCNC(=N)N)NC(=O)[C@H](CC(C)C)NC(=O)[C@H](CCC(N)=O)NC(=O)[C@H](C)NC(=O)[C@H](C)NC(C)=O)C(=O)NCC(=O)N[C@@H](CC(=O)O)C(=O)N[C@@H](Cc1cn(Cc2ccccc2)nn1)C(N)=O [Compound 3]
Mcl-1; SEM, read-out: FA IC50
  IC50: 0.7 ± 0.8 µM

## CC[C@H](C)[C@H](NC(=O)[C@H](CCCNC(=N)N)NC(=O)[C@H](CCCNC(=N)N)NC(=O)[C@H](CC(C)C)NC(=O)[C@H](CCC(N)=O)NC(=O)[C@H](C)NC(=O)[C@H](C)NC(C)=O)C(=O)NCC(=O)N[C@@H](CC(=O)O)C(=O)N[C@@H](Cc1cn(CC(=O)O)nn1)C(N)=O [Compound 4]
Mcl-1; SEM, read-out: FA IC50
  IC50: 5.8 ± 4.6 µM

## COc1ccc(OC)c(-c2cn(CC(=O)N[C@@H](CCCCN)C(=O)N[C@H](C(=O)N[C@@H](CC(N)=O)C(=O)N[C@@H](CC(C)C)C(=O)N[C@@H](CCCNC(=N)N)C(=O)N[C@@H](CCC(N)=O)C(=O)N[C@@H](CCCCN)C(=O)N[C@@H](CC(C)C)C(=O)N[C@@H](CC(C)C)C(=O)N[C@@H](CC(N)=O)C(N)=O)C(C)C)nn2)c1 [Compound 9] (X2-KVNLRQKLLN-NH2)
Mcl-1; SEM, read-out: FA IC50
  IC50: 0.1 ± 0.1 µM

## CC(C)C[C@H](NC(=O)[C@H](CC(C)C)NC(=O)[C@H](CCCCN)NC(=O)[C@H](CCC(N)=O)NC(=O)[C@H](CCCNC(=N)N)NC(=O)[C@H](CC(C)C)NC(=O)[C@H](CC(N)=O)NC(=O)[C@@H](NC(=O)[C@H](CCCCN)NC(=O)Cn1cc(-c2ccc([N+](=O)[O-])cc2)nn1)C(C)C)C(=O)N[C@@H](CC(N)=O)C(N)=O [Compound 11] (X3-KVNLRQKLLN-NH2)
Mcl-1; SEM, read-out: FA IC50
  IC50: 3.5 ± 1.5 µM

## CC(C)C[C@H](NC(=O)[C@H](CC(C)C)NC(=O)[C@H](CCCCN)NC(=O)[C@H](CCC(N)=O)NC(=O)[C@H](CCCNC(=N)N)NC(=O)[C@H](CC(C)C)NC(=O)[C@H](CC(N)=O)NC(=O)[C@@H](NC(=O)[C@H](CCCCN)NC(=O)Cn1cc(-c2c(O)ccc3ccccc23)nn1)C(C)C)C(=O)N[C@@H](CC(N)=O)C(N)=O [Compound 13] (X4-KVNLRQKLLN-NH2)
Mcl-1; SEM, read-out: FA IC50
  IC50: 8.2 ± 1.9 µM

## CC(C)C[C@H](NC(=O)[C@H](CC(C)C)NC(=O)[C@H](CCCCN)NC(=O)[C@H](CCC(N)=O)NC(=O)[C@H](CCCNC(=N)N)NC(=O)[C@H](CC(C)C)NC(=O)[C@H](CC(N)=O)NC(=O)[C@@H](NC(=O)[C@H](CCCCN)NC(=O)Cn1cc(-c2ccc(Cl)cc2Cl)nn1)C(C)C)C(=O)N[C@@H](CC(N)=O)C(N)=O [Compound 14] (X1-KVNLRQKLLN-NH2)
Mcl-1; SEM, read-out: FA IC50
  IC50: 8.3 ± 3.6 µM

## Fc1ccccc1Cn1cc(C2=CCCCC2)nn1 [Compound 19]
MiaPaCa-2 cells; 72 h
  IC50: > 100 µM
Mcl-1; [1]
  IC50: 0.217 ± 0.058 µM
AsPC-1 cells; 72 h
  IC50: > 100 µM
BxPC-3 cells; 72 h, SEM
  IC50: 21.6 ± 8.83 µM

## C1=C(c2cn(Cc3ccccc3)nn2)CCCC1 [Compound 22, 1-benzyl-4-(cyclohex-1-en-1-yl)-1H-1,2,3-triazole]
MiaPaCa-2 cells; Homo sapiens, MIA PaCa-2, 72 h
  IC50: > 100 µM
Mcl-1; SEM, read-out: FA IC50
  IC50: 1.68 ± 0.694 µM
AsPC-1 cells; Homo sapiens, ASPC1, 72 h
  IC50: > 100 µM
BxPC-3 cells; Homo sapiens, BXPC-3, 72 h
  IC50: > 100 µM

## COC(=O)[C@H](Cc1cn(Cc2ccccc2C)nn1)NC(=O)OCC1c2ccccc2-c2ccccc21 [Compound 24, methyl (S)-2-((((9H-fluoren-9-yl)methoxy)carbonyl)amino)-3-(1-(2-methylbenzyl)-1H-1,2,3-triazol-4-yl)propanoate]
MiaPaCa-2 cells; 72 h, SEM
  IC50: 2.14 ± 0.56 µM
Mcl-1; [1]
  IC50: 2.21 ± 0.877 µM
AsPC-1 cells; 72 h, SEM
  IC50: 2.28 ± 1.44 µM
BxPC-3 cells; 72 h, SEM
  IC50: 10.7 ± 2.72 µM

## Clc1ccc(-c2cn(Cc3ccccc3)nn2)c(Cl)c1 [Compound 25, 1-benzyl-4-(2,4-dichlorophenyl)-1H-1,2,3-triazole]
MiaPaCa-2 cells; Homo sapiens, MIA PaCa-2, 72 h
  IC50: > 100 µM
Mcl-1; SEM, read-out: FA IC50
  IC50: 5.5 ± 3.92 µM
AsPC-1 cells; Homo sapiens, ASPC1, 72 h
  IC50: > 100 µM
BxPC-3 cells; Homo sapiens, BXPC-3, 72 h
  IC50: > 100 µM

## CCc1ccc(-c2cn(CC(=O)O)nn2)cc1 [Compound S10]
Mcl-1; [2]
  IC50: 0.497 ± 0.367 µM

## O=C(O)Cn1cc(-c2ccc([N+](=O)[O-])cc2)nn1 [Compound S11]
Mcl-1; [2]
  IC50: 0.561 ± 0.13 µM

## Cc1ccc(-c2cn(CC(=O)O)nn2)c(C)c1 [Compound S12]
Mcl-1; [2]
  IC50: 0.766 ± 0.484 µM

## CCOc1ccc(-c2cn(CC(=O)O)nn2)cc1 [Compound S13]
Mcl-1; [2]
  IC50: 1.32 ± 1.1 µM

## Fc1ccccc1Cn1cc(-c2ccccc2Cl)nn1 [Compound S14]
Mcl-1; [2]
  IC50: 1.37 ± 0.938 µM

## CCC(C)c1cn(Cc2ccccc2)nn1 (stereo not shown) [Compound S15]
Mcl-1; [2]
  IC50: 3.31 ± 0.488 µM

## COC(=O)[C@H](Cc1cn(CC(=O)O)nn1)NC(=O)OCC1c2ccccc2-c2ccccc21 [Compound S16]
Mcl-1; [2]
  IC50: 5.28 ± 1.69 µM

## COC(=O)[C@H](Cc1cn(Cc2ccc(Br)cc2)nn1)NC(=O)OCC1c2ccccc2-c2ccccc21 [Compound S17]
Mcl-1; [3]
  IC50: > 100 µM

## CCCCCCCc1cn(C23CC4CC(CC(C4)C2)C3)nn1 [Compound S18]
Mcl-1; [3]
  IC50: > 100 µM

## CCCCCCCc1cn(Cc2ccccc2F)nn1 [Compound S19]
Mcl-1; [3]
  IC50: > 100 µM

## AAQLRRIGD [Compound 5]
Mcl-1; [4]
  IC50: < 100 µM

## AAQLRRIGD [Compound S1]
Mcl-1; [5]
  IC50: < 100 µM

## KVNLRQKLLN [Compound 10]
Mcl-1; [6]
  IC50: 1.2 µM

## KVNLRQKLLN [Compound 12]
Mcl-1; [6]
  IC50: 4.3 ± 0.9 µM

## KVNLRQKLLN [Compound 15]
Mcl-1; [4]
  IC50: < 100 µM

## KVNLRQKLLN [Compound S2]
Mcl-1; [5]
  IC50: < 100 µM

## extended NoxaB peptide: the two NoxaB peptide fragments clicked together by CuAAC (AAQLRRIGDXKVNLRQKLLN; N-terminal acetyl)
Mcl-1; 5 nM FITC-NoxaB, 10 nM Mcl-1, read-out: IC50 (competitive FA assay, Mcl-1)
  IC50: 7.23 ± 0.88 µM
